Source: paper PMC7238241, “Lack of Correlation between In Vitro and In Vivo Studies on the Inhibitory Effects of (‒)-Sophoranone on CYP2C9 Is Attributable to Low Oral Absorption and Extensive Plasma Protein Binding of (‒)-Sophoranone” (Pharmaceutics, 2020)
Like-named read-outs stand apart in the source and are kept apart here.

Experiments:
Assay type in all cases: biochemical
CYP2A6 = target: T1, CYP2A6 (Homo sapiens, UniProt P11509); assay: Reversible CYP2A6 inhibition, cocktail assay (coumarin 7-hydroxylase) in human liver microsomes
T1 construct: tissue Corning Life Sciences; host or cells: pooled human liver microsomes, 150 donors
T1 sequence (P11509 1-494): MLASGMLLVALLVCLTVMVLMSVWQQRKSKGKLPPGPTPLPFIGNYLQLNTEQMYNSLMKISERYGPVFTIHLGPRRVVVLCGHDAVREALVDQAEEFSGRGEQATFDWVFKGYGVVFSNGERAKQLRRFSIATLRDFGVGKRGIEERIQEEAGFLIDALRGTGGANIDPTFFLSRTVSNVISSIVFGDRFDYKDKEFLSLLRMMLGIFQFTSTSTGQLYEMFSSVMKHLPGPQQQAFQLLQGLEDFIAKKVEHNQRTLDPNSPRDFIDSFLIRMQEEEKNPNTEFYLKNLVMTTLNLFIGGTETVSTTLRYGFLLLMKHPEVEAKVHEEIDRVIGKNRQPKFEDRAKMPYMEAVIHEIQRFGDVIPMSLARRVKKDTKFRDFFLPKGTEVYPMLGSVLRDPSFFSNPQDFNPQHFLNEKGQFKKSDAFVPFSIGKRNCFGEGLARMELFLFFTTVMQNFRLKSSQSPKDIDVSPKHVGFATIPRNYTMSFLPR
Experimental: (§1) The inhibitory effects of SPN on CYP1A2, CYP2A6, CYP2B6, CYP2C8, CYP2C9, CYP2C19, CYP2D6, CYP2E1, and CYP3A4 were evaluated in pooled human liver microsomes through the use of specific CYP probe substrates (cocktail assay), as previously described with a slight modification. Concentrations of each CYP probe in Table 1 were used close to their reported Km values.
Briefly, a 90-µL incubation mixture, including pooled human liver microsomes (final concentration 0.1 mg/mL), 50 mM phosphate buffer (pH 7.4), each CYP-probe substrate cocktail set, and SPN (0–50 μM), was pre-incubated for 5 min at 37 °C. SPN was dissolved in methanol and spiked into the incubation mixture to a final concentration of 0.5% methanol. All P450-selective substrates (except coumarin due to solubility) were dissolved in methanol and serially diluted with methanol to the required concentrations, and the organic solvent was subsequently evaporated under a gentle stream of N2 gas to minimize the effects of organic solvents on CYP activities. On the other hand, coumarin dissolved in 50 mM phosphate buffer (pH 7.4) was directly added into the mixed tube. The reaction was initiated by adding 10-µL aliquot of NADPH-generating system (1.3 mM NADP^+, 3.3 mM glucose 6-phosphate, 3.3 mM MgCl2, and 0.4 unit/mL glucose-6-phosphate dehydrogenase) before 15 min incubation at 37 °C in a shaking water bath. […]
(§2) The IC50 values were calculated via nonlinear least-squares regression analysis from logarithmic plots of inhibitor concentration versus percentage of activity remaining after inhibition, using SigmaPlot (ver. 14.0; Systat Software Inc, Chicago, IL, USA). The Ki values were determined from the equations for a single substrate single inhibitor model and the software available in the SigmaPlot Enzyme Kinetics module. Competitive, non-competitive, uncompetitive, or mixed inhibition models were evaluated and ranked according to the best fit based on Akaike Information Criterion (AIC) values. […]

CYP2C9 [1] = target: T2, CYP2C9 (Homo sapiens, UniProt P11712); assay: Determination of Ki and inhibition type on CYP2C9 activity in human liver microsomes; settings: for Ki: human liver microsomes, n = 3
T2 construct: tissue Corning Life Sciences; host or cells: pooled human liver microsomes, 150 donors
Experimental: Based on the IC50 values, the Ki values of SPN on CYP2C9 activity were determined. […] Other procedures were similar to those of the reversible inhibition studies. All incubations were performed in triplicate, and the data are shown as the mean ± standard deviation.
The IC50 values were calculated via nonlinear least-squares regression analysis from logarithmic plots of inhibitor concentration versus percentage of activity remaining after inhibition, using SigmaPlot (ver. 14.0; Systat Software Inc, Chicago, IL, USA). The Ki values were determined from the equations for a single substrate single inhibitor model and the software available in the SigmaPlot Enzyme Kinetics module. Competitive, non-competitive, uncompetitive, or mixed inhibition models were evaluated and ranked according to the best fit based on Akaike Information Criterion (AIC) values. For visual inspection, the data were presented as Dixon plots.

CYP2D6 = target: T3, CYP2D6 (Homo sapiens, UniProt P10635); assay: Reversible CYP2D6 inhibition, cocktail assay (dextromethorphan O-demethylase) in human liver microsomes
T3 construct: tissue Corning Life Sciences; host or cells: pooled human liver microsomes, 150 donors
Experimental: as §1
(§3) Briefly, a 90-µL incubation mixture, including pooled human liver microsomes (final concentration 0.1 mg/mL), 50 mM phosphate buffer (pH 7.4), each CYP-probe substrate cocktail set, and SPN (0–50 μM), was pre-incubated for 5 min at 37 °C. SPN was dissolved in methanol and spiked into the incubation mixture to a final concentration of 0.5% methanol. […]
as §2

CYP2C9 [2] = target: T2, CYP2C9; assay: Reversible CYP2C9 inhibition, cocktail assay (tolbutamide 4-hydroxylase) in human liver microsomes; settings: human liver microsomes 0.1 mg/mL, tolbutamide probe, n = 3
Experimental: as §1, §3, §2

CYP2C8 = target: T4, CYP2C8 (Homo sapiens, UniProt P10632); assay: Reversible CYP2C8 inhibition, cocktail assay (rosiglitazone p-hydroxylase) in human liver microsomes; settings: human liver microsomes 0.1 mg/mL, rosiglitazone probe, n = 3
T4 construct: tissue Corning Life Sciences; host or cells: pooled human liver microsomes, 150 donors
T4 sequence (P10632 1-490): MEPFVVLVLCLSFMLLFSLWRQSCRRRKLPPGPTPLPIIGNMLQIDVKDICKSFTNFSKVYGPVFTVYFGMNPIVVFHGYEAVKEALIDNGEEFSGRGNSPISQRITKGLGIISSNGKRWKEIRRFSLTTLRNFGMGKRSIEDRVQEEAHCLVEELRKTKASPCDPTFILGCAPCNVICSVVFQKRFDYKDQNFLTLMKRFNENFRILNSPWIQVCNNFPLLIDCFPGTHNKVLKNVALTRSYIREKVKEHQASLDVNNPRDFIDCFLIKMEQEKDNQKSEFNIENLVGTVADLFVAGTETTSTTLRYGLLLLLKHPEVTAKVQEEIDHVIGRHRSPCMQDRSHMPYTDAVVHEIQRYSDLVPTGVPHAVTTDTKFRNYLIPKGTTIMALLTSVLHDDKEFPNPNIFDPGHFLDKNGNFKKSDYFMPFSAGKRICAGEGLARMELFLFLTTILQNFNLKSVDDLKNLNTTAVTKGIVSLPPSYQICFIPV
Experimental: as §1, §3, §2

[3] = at the highest tested concentration (50 μM)

T2 sequence (P11712 whole entry): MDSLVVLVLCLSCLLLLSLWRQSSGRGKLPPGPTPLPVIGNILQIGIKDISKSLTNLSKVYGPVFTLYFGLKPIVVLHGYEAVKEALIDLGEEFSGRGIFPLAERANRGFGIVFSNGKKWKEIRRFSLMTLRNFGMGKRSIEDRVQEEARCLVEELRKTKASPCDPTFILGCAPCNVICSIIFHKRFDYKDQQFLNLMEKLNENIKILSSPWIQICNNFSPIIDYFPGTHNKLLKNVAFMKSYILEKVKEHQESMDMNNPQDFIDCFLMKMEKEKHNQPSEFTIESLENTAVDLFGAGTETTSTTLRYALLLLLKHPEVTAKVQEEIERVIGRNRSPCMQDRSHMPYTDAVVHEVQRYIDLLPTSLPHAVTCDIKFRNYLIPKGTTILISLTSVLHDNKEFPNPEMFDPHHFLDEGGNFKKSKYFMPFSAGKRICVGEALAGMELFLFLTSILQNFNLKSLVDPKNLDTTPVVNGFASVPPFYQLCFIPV
T3 sequence (P10635 whole entry): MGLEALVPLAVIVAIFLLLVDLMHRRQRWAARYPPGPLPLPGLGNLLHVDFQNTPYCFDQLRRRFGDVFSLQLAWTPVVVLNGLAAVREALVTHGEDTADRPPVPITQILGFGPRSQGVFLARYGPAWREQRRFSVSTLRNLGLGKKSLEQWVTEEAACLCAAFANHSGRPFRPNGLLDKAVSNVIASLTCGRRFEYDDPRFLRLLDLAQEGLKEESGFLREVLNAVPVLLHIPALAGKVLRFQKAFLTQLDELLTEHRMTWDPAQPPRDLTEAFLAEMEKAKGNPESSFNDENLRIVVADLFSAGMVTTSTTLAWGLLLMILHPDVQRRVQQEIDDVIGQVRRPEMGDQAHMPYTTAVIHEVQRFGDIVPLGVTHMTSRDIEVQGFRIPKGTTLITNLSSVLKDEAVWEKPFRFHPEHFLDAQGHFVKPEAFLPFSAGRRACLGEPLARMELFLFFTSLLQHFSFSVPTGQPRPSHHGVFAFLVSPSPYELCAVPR

- residual enzyme activity, CYP2A6 (CYP2A6; [3]): greater than 80%
- IC50 (CYP2A6; human liver microsomes 0.1 mg/mL, cocktail assay, coumarin probe, n = 3, read-out: IC50 Values, CYP2A6): > 50000 nM
- Ki (CYP2C9 [1]; Ki values, CYP2C9 probe diclofenac, diclofenac 2, 5, and 10 µM): 587 ± 47 nM
- Mode of inhibition, CYP2C9 probe diclofenac (CYP2C9 [1]; best fit based on AIC values): Competitive
- Mode of inhibition, CYP2C9 probe tolbutamide (CYP2C9 [1]; best fit based on AIC values): Competitive
- Ki (CYP2C9 [1]; tolbutamide 50, 100, and 150 µM, read-out: Ki values, CYP2C9 probe tolbutamide): 503 ± 38.3 nM
- residual enzyme activity, CYP2D6 (CYP2D6; [3]): 53.9 ± 3.53%
- IC50 (CYP2D6; human liver microsomes 0.1 mg/mL, cocktail assay, dextromethorphan probe, n = 3): > 50000 nM
- IC50 (CYP2C9 [2]): 966 ± 149 nM
- IC50 (CYP2C8): 13600 ± 3150 nM
Structure (SMILES): CC(C)=CCc1cc([C@@H]2CC(=O)c3ccc(O)c(CC=C(C)C)c3O2)cc(CC=C(C)C)c1O [SPN, (‒)-Sophoranone]
